Data on 15 compounds can be found in ChEMBL document CHEMBL4431388, “Molecular docking studies and synthesis of novel bisbenzimidazole derivatives as inhibitors of α-glucosidase” (Bioorg Med Chem, 2016).

In one experiment the test system is Saccharomyces cerevisiae. Briefly: Inhibition of baker's yeast alpha-glucosidase at 300 uM using p-nitrophenyl alpha-D-glucopyranoside as substrate preincubated for 15 mins followed by substrate addition measured for 20 mins by spectrophotometric analysis relative to control.
The nature of experiment [1]: Inhibition of baker's yeast alpha-glucosidase using p-nitrophenyl alpha-D-glucopyranoside as substrate preincubated for 15 mins followed by substrate addition measured for 20 mins by spectrophotometric analysis. More on the design: species or system Saccharomyces cerevisiae.

The structures appear in SMILES notation.

In the experiment on Saccharomyces cerevisiae, `O=[N+]([O-])c1ccc2nc(-c3nc4ccc([N+](=O)[O-])cc4n3Cc3nnc(S)n3-c3ccccc3)n(Cc3nnc(S)n3-c3ccccc3)c2c1` had an inhibition of 23.7%.
On the same count and under the same terms, under `O=C(Cn1c(-c2nc3ccccc3n2CC(=O)NNC(=S)Nc2ccccc2)nc2ccccc21)NNC(=S)Nc1ccccc1` stands 39.6%.
Still for that read-out and setting: under `O=C(Cn1c(-c2nc3ccccc3n2CC(=O)NNC(=S)NCc2ccccc2)nc2ccccc21)NNC(=S)NCc1ccccc1` stands 23.2%.
Compound `C[C@H]1O[C@H](O[C@H]2[C@H](O)[C@@H](O)[C@@H](O[C@H]3[C@H](O)[C@@H](O)C(O)O[C@@H]3CO)O[C@@H]2CO)[C@H](O)[C@@H](O)[C@@H]1N[C@H]1C=C(CO)[C@@H](O)[C@H](O)[C@H]1O` (stereo partly drawn) [ACARBOSE] returned an inhibition in the experiment with Saccharomyces cerevisiae of 83.3%. The compound further gave an IC50 in experiment [1] of 13.3 µM.
On the same counts, the results for `O=C(Cn1c(-c2nc3ccc([N+](=O)[O-])cc3n2CC(=O)NNC(=S)NCc2ccccc2)nc2ccc([N+](=O)[O-])cc21)NNC(=S)NCc1ccccc1` are 100% and 0.49 µM.
In the experiment with Saccharomyces cerevisiae, `c1ccc(Nc2nnc(Cn3c(-c4nc5ccccc5n4Cc4nnc(Nc5ccccc5)s4)nc4ccccc43)s2)cc1` yielded an inhibition of 42.7%.
`O=C(Cn1c(-c2nc3ccc([N+](=O)[O-])cc3n2CC(=O)NNC(=S)Nc2ccccc2)nc2ccc([N+](=O)[O-])cc21)NNC(=S)Nc1ccccc1`: the inhibition in the experiment on Saccharomyces cerevisiae was determined as 100%. The same compound came in with an IC50 in experiment [1] of 1.24 µM.
On the same counts, the results for `O=[N+]([O-])c1ccc2nc(-c3nc4ccc([N+](=O)[O-])cc4[nH]3)[nH]c2c1` are 100% and 0.54 µM.
For the compound `CCOC(=O)Cn1c(-c2nc3ccc([N+](=O)[O-])cc3n2CC(=O)OCC)nc2ccc([N+](=O)[O-])cc21`, the inhibition in the experiment with Saccharomyces cerevisiae stood at 85.8%. The same compound displayed an IC50 in experiment [1] of 6.69 µM.
With `NNC(=O)Cn1c(-c2nc3ccc([N+](=O)[O-])cc3n2CC(=O)NN)nc2ccc([N+](=O)[O-])cc21`, the inhibition with Saccharomyces cerevisiae was determined as 100%. The compound also returned an IC50 in experiment [1] of 0.44 µM.
`O=[N+]([O-])c1ccc2nc(-c3nc4ccc([N+](=O)[O-])cc4n3Cc3nnc(NCc4ccccc4)s3)n(Cc3nnc(NCc4ccccc4)s3)c2c1` registered an inhibition with Saccharomyces cerevisiae of 48.4%.
`Sc1nnc(Cn2c(-c3nc4ccccc4n3Cc3nnc(S)n3-c3ccccc3)nc3ccccc32)n1-c1ccccc1` registered an inhibition in the experiment with Saccharomyces cerevisiae of 100%. For the same compound, in experiment [1], the midpoint of inhibition, the IC50, lay at 3.01 µM.
On to `O=[N+]([O-])c1ccc2nc(-c3nc4ccc([N+](=O)[O-])cc4n3Cc3nnc(S)n3Cc3ccccc3)n(Cc3nnc(S)n3Cc3ccccc3)c2c1`, for which the inhibition in the experiment on Saccharomyces cerevisiae is 35.8%.
Still for that read-out and setting: next, `NNC(=O)Cn1c(-c2nc3ccccc3n2CC(=O)NN)nc2ccccc21`: 45.8%.
`O=[N+]([O-])c1ccc2nc(-c3nc4ccc([N+](=O)[O-])cc4n3Cc3nnc(Nc4ccccc4)s3)n(Cc3nnc(Nc4ccccc4)s3)c2c1` came in with an inhibition with Saccharomyces cerevisiae of 89.1%. This compound also returned an IC50 in experiment [1] of 5.27 µM.

A word on the inhibition: it is the percentage by which the read-out fell short of the control. Higher therefore signals a response far below the control. Usually IC50 stands for the midpoint of a concentration-inhibition curve. The low end stands for inhibition by little substance, the high end for a need for much substance.
